Source: US20080228069A1, “Novel Differential Imaging Method” (MEDIPHYSICS, INC., priority 2003, published 2008)

Tests used:
[1] = test system: myocardial uptake of ^123I mIBG; assay: ^123I mIBG imaging with and without amitryptaline; format: in vivo, human
Method: 4 patients with movement disorders and aged between 66 and 75 were selected for this study. Neurological examination raised the differential diagnosis between essential tremor and Parkinson's disease. Prior to the study, none of the patients was taking any medication known to interfere with mIBG uptake. In all patients two ^123I mIBG scans were performed, one of which was performed after administration of a single oral dose of 25 mg amitryptaline one hour prior to ^123I mIBG administration. The imaging protocol was carried out for both scans as described in the following paragraphs.
The patients were treated with 200-500 mg of potassium perchlorate 30 minutes before injection of ^123I mIBG. […]
Anterior planar images of the thorax were obtained at 15 minutes and at 4 hours after ^123I mIBG injection with the subject in a supine position. The gamma camera (GE Millenium) was equipped with a low-energy, parallel-hole, general purpose collimator, and a 20% energy window on 159 KeV if ^123I is used.
SPECT was performed with collection of 32 projections of 30-60 seconds each, acquired over 180° orbit, with 3°-6° angle interval in a 64×64 matrix starting in the 45° right anterior oblique projection and finishing in the 45° left posterior oblique projection.
Studies were reconstructed using a Butterworth filtered backprojection technique. Three tomographic images were obtained from the SPECT study, i.e. vertical long axis slices, short axis slices, and horizontal long axis slices. Bull's eye polar map was generated from the apical to the basal short axis slices to show relative tracer distribution in the myocardium. Reconstruction was performed without attenuation and scatter correction.
The parameters used for quantification of myocardial ^123I-mIBG activity were heart to mediastinum ratio (HMR) and myocardial washout rate (WR). […] The WR is calculated by dividing the product of […] by myocardial counts at 15 minutes and multiplying by 100. […]

[2] = test system: SK—N—SH human neuroblastoma cells; settings: over activity range; cited from earlier work
[3] = cited from earlier work

Compound	myocardial uptake of ^123I mIBG when amitryptaline was administered before ^123I mIBG ([1]; FIG. 3, two of the four subjects, single oral dose of 25 mg amitryptaline one hour prior to ^123I mIBG)	difference in the myocardial uptake of ^123I mIBG following administration of amitryptaline ([1]; FIG. 4, the other two subjects, single oral dose of 25 mg amitryptaline one hour prior to ^123I mIBG)	uptake of ^123I mIBG in the stress image ([1]; half of the patients imaged (4 patients), adrenergic interfering agent amitryptaline)	percent binding to SK—N—SH human neuroblastoma cells [2]	uptake in mouse heart and adrenals [3]
CN(C)CCC=C1c2ccccc2CCc2ccccc21 [amitryptaline]	marked decrease	no notable difference	Reduced uptake		
NC(N)=NCc1ccc(F)c(I)c1 [^18F-FIBG]				remained constant over a 3-log activity range	Specific and high uptake
